The record followed here is ChEMBL document CHEMBL1147362, “Cytotoxicity of Hymenocallis expansa alkaloids” (1993).

Values after ≈ are worked out from the molar mass of the structure shown. Where only a bound is given, the exact number is not on record here.

What all share (assay type): functional
Assay [1] concerns KB. Kind of assay: Cytotoxicity against human KB cells after 3 days by sulforhodamine B assay. To be noted: 72 h, read-out: ED50 (the source's name). In general terms: The SRB assay estimates cell density from bound dye.
Assay [2] concerns ZR-75-1. The assay is described as follows: Cytotoxicity against human ZR-75-1 cells after 3 days by sulforhodamine B assay. To be noted: ZR-75-1, 72 h, read-out: ED50 (the source's name).
Assay [3] can be described thus: Cytotoxicity against human KBV1 cells after 3 days by sulforhodamine B assay. To be noted: KB-V1, 72 h, read-out: ED50 (the source's name).
Assay [4] deals with SK-MEL-2. The assay is described as follows: Cytotoxicity against human SK-MEL-2 cells after 3 days by sulforhodamine B assay. To be noted: SK-MEL-2, 72 h, read-out: ED50 (the source's name).
Assay [5] concerns P388. Kind of assay: Cytotoxicity against mouse P388 cells after 3 days by sulforhodamine B assay. To be noted: P388, 72 h, read-out: ED50 (the source's name).
Assay [6] relates to Lu1. Kind of assay: Cytotoxicity against human Lu1 cells after 3 days by sulforhodamine B assay. To be noted: Lu1, 72 h, read-out: ED50 (the source's name).
For assay [7], the system named is Col2. The assay is described as follows: Cytotoxicity against human Col2 cells after 3 days by sulforhodamine B assay. To be noted: Col2, 72 h, read-out: ED50 (the source's name).
The test system of assay [8] is HT. The assay is described as follows: Cytotoxicity against human HT cells after 3 days by sulforhodamine B assay. To be noted: 72 h, read-out: ED50 (the source's name).
Assay [9] deals with A-431. The assay is described as follows: Cytotoxicity against human A431 cells after 3 days by sulforhodamine B assay. To be noted: A-431, 72 h, read-out: ED50 (the source's name).
Assay [10] relates to LNCaP. The assay is described as follows: Cytotoxicity against human LNCAP cells after 3 days by sulforhodamine B assay. To be noted: 72 h, read-out: ED50 (the source's name).
The nature of assay [11]: Cytotoxicity against human BC1 cells after 3 days by sulforhodamine B assay. To be noted: BC1, 72 h, read-out: ED50 (the source's name).

Turning to `CN1CCC2=C[C@H](O)[C@H]3OC(=O)c4cc5c(cc4[C@H]3[C@@H]21)OCO5`, the EC50 in assay [1] is more than 20 µg/mL; in assay [2], 7.3 µg/mL (≈ 23.2 µM); in assay [3], more than 20 µg/mL; in assay [4] it was more than 20 µg/mL; in [5], 4 µg/mL (≈ 12.7 µM); in assay [6], 5.2 µg/mL (≈ 16.5 µM). Besides, the EC50 in assay [7] was 7.8 µg/mL (≈ 24.7 µM); in [8], 4.7 µg/mL (≈ 14.9 µM); in assay [9], 6.3 µg/mL (≈ 20 µM); in assay [10], 1.8 µg/mL (≈ 5.71 µM); in assay [11], more than 20 µg/mL.

For `CO[C@@H]1C=C[C@@]23c4cc5c(cc4[C@H](O)N(C[C@@H]2O)[C@H]3C1)OCO5`, the EC50 in assay [1] came to 3.6 µg/mL (≈ 11.3 µM); in [2], 2.6 µg/mL (≈ 8.19 µM); in assay [3], 8.4 µg/mL (≈ 26.5 µM); in [4], 1.9 µg/mL (≈ 5.99 µM); in assay [5] it was 0.4 µg/mL (≈ 1.26 µM); in assay [6], 2.1 µg/mL (≈ 6.62 µM). Further, the EC50 in [7] is 6 µg/mL (≈ 18.9 µM); in [8], 1.6 µg/mL (≈ 5.04 µM); in assay [9], 3 µg/mL (≈ 9.45 µM); in assay [10] it was 0.7 µg/mL (≈ 2.21 µM); in assay [11], more than 20 µg/mL.

For the compound `CO[C@@H]1C=C[C@@]23c4cc5c(cc4CO[C@]2(O)CN(C)[C@H]3C1)OCO5` [TAZETTINE], the EC50 was 7.3 µg/mL (≈ 22 µM) in assay [1]; 6.9 µg/mL (≈ 20.8 µM) in [2]; more than 20 µg/mL in assay [3]; 12.9 µg/mL (≈ 38.9 µM) in [4]; 1 µg/mL (≈ 3.02 µM) in assay [5]; 11.1 µg/mL (≈ 33.5 µM) in assay [6]. For the same compound, the EC50 in [7] was 5 µg/mL (≈ 15.1 µM); in assay [8], 11.8 µg/mL (≈ 35.6 µM); in assay [9], 11.1 µg/mL (≈ 33.5 µM); in assay [10], 5.9 µg/mL (≈ 17.8 µM); in assay [11], more than 20 µg/mL.
